How the values were obtained:
[1] = Phase 1 single/multiple ascending dose and food effect trial in healthy volunteers: pharmacokinetics (plasma, urine); format: in vivo, human
Excerpt: This is a three-part clinical trial to evaluate the safety, tolerability, PK, and food effect of Compound 1 in healthy volunteers aged 18 to 55 years inclusive. The clinical trial is comprised of the following 3 parts: • Part A is randomized, double-blinded and placebo-controlled. Part A is designed to investigate the safety and PK of single ascending doses of Compound 1. • Part B is randomized, double-blinded and placebo-controlled. Part B is designed to investigate the safety and PK of multiple ascending doses of Compound 1 (selected based on the results from Part A). • Part C is a randomized, open-label, crossover design to investigate the PK of a single dose of Compound 1 in the fasted and fed state. Objectives and Endpoints: Part A
(§1) Part C may commence once the safety and PK have been adequately evaluated in the last cohort of Part A. Up to 16 participants receive two doses of Compound 1, one dose after a minimum of 10 hours fasting and one after consumption of a high-fat, high calorie meal in a randomized crossover design, with a 7 day washout in between periods. Up to 3 additional days of washout may be added between fasted and fed dosing based on the observed half-life in Part A.
A validated bioanalytical method is utilized for the determination of plasma and urine concentrations of Compound 1. Plasma and urine concentrations are summarized by dose group/condition and timepoint using descriptive statistics. In addition to descriptive statistics specified in General Conditions above, plasma concentrations are also summarized using number and percentage of concentrations below the level of quantification (BLQ) and coefficient of variation (CV %).
Pharmacokinetic parameters are estimated from concentration-time data using standard non-compartmental methods. Urine PK parameters are estimated from urine concentration and urine volume data. PK parameters are summarized by dose group/condition using descriptive statistics. In addition to descriptive statistics specified in General Conditions above, PK parameters are summarized using CV %, geometric mean, and geometric coefficient of variation. PK parameters are assessed for linearity and dose proportionality using the power model where feasible. To test for a food effect in Part C, the geometric mean ratio (In transformed) of the test treatment (ie, fed condition) relative to the reference treatment (ie, fasted condition) are estimated with the 90% CIs calculated for Cmax and AUC0-inf. […]
as §1, with “Participants” for “Up to 16 participants”, “Up to 3 additional days of washout may be added between fasted and fed dosing based on the observed half-life in Part A.” left out

[2] = Phase 1 single/multiple ascending dose and food effect trial in healthy volunteers: safety and tolerability; format: in vivo, human
Excerpt: This is a three-part clinical trial to evaluate the safety, tolerability, PK, and food effect of Compound 1 in healthy volunteers aged 18 to 55 years inclusive. The clinical trial is comprised of the following 3 parts: • Part A is randomized, double-blinded and placebo-controlled. Part A is designed to investigate the safety and PK of single ascending doses of Compound 1. • Part B is randomized, double-blinded and placebo-controlled. […]
Dosing in each dose level cohort starts with 2 sentinel participants with one of the 2 participants randomized to receive Compound 1 and the other participant randomized to receive placebo. The safety and tolerability of each sentinel participant are monitored until Day 6 and reviewed prior to dosing the remainder of participants in each cohort. […]
(§2) A dose level is evaluated in Part B if determined to be safe and tolerable in Part A. It is anticipated that 3 dose levels are evaluated in Part B in a total of 3 cohorts (Cohorts B1-B3). […]
as §2

## CCOC(F)(F)c1nnc2cnc(-c3cnc(OCC(F)(F)F)c(F)c3)cn12 [Compound 1, 3-(ethoxydifluoromethyl)-6-(5-fluoro-6-(2,2,2-trifluoroethoxy)pyridin-3-yl)-[1,2,4]triazolo[4,3-a]pyrazine]
[1]; healthy volunteers, oral capsules, fasted, preliminary data
  time to maximal concentrations: 2 to 3 h
[1]; healthy volunteers, preliminary data
  exposure versus dose level: increase proportionate to dose level
[1]; human, plasma, oral, average across groups, healthy volunteers, preliminary data, read-out: Terminal elimination half-life (converted)
  half-life: 114 h
[1]; once daily dosing
  time to 90% of steady-state: approximately 2 weeks
[2]; Part A single ascending doses, first four of six planned cohorts, preliminary analysis
  tolerability: well tolerated
[2]; Part A, first three cohorts tested
  Serious Adverse Events, severe Adverse Events, or Adverse Events leading to study withdrawal or discontinuation: no reported

Source: patent US12552797B2, “Process for making (3-[cyclopropylethoxy(difluoro)methyl]-6-6[5-fluoro-6-(2,2,2-trifluoroethoxy-3-pyridyl]- [1,2,4]triazolo[4,3-a]pyrazine” (Praxis Precision Medicines, Inc., priority 2019, dated 2026)
